In ChEMBL document CHEMBL4834498, “Positive allosteric modulators (PAMs) of the group II metabotropic glutamate receptors: Design, synthesis, and evaluation as ex-vivo tool compounds” (Bioorg Med Chem Lett, 2021):
The source made the active and inactive calls. The calls are words filed in the database; no cut-off is given here.

Key:
[1] = target: Metabotropic glutamate receptor 2 (Rattus norvegicus) (UniProt P31421); experiment: Positive allosteric modulator activity at rat mGlu2 receptor transfected in GIRK channel overexpressing cells assessed as potentiation of glutamate -induced response by thallium mobilization assay relative to glutamate; set-up: concentration or dose not given beside the values
[2] = target: Metabotropic glutamate receptor 2 (Rattus norvegicus, UniProt P31421); experiment: Positive allosteric modulator activity at rat mGlu2 receptor transfected in GIRK channel overexpressing cells assessed as potentiation of glutamate-induced response by thallium mobilization assay
[3] = target: Metabotropic glutamate receptor 3 (Rattus norvegicus) (UniProt P31422); experiment: Positive allosteric modulator activity at rat mGlu3 receptor transfected in GIRK channel overexpressing cells assessed as potentiation of glutamate-induced response by thallium mobilization assay relative to glutamate; set-up: concentration or dose not given beside the values
[4] = target: Metabotropic glutamate receptor 3 (Rattus norvegicus, UniProt P31422); experiment: Positive allosteric modulator activity at rat mGlu3 receptor transfected in GIRK channel overexpressing cells assessed as potentiation of glutamate-induced response by thallium mobilization assay
[5] = target: Metabotropic glutamate receptor 3 (Mus musculus) (UniProt Q9QYS2); experiment: Positive allosteric modulator activity at mGlu3 receptor in CaMK2-Cre::GCaMP6s transgenic mouse PFC pyramidal cells assessed as potentiation of LY379268-induced Ca2+ mobilization at 10 uM in presence of mGlu2 negative allosteric modulator, VU6001966 by calcium imagining analysis; type: functional; settings: filed as positive allosteric modulator
[6] = filed as positive allosteric modulator

Sequence of Metabotropic glutamate receptor 3 (Rattus norvegicus) (P31422 23-879 limits assumed): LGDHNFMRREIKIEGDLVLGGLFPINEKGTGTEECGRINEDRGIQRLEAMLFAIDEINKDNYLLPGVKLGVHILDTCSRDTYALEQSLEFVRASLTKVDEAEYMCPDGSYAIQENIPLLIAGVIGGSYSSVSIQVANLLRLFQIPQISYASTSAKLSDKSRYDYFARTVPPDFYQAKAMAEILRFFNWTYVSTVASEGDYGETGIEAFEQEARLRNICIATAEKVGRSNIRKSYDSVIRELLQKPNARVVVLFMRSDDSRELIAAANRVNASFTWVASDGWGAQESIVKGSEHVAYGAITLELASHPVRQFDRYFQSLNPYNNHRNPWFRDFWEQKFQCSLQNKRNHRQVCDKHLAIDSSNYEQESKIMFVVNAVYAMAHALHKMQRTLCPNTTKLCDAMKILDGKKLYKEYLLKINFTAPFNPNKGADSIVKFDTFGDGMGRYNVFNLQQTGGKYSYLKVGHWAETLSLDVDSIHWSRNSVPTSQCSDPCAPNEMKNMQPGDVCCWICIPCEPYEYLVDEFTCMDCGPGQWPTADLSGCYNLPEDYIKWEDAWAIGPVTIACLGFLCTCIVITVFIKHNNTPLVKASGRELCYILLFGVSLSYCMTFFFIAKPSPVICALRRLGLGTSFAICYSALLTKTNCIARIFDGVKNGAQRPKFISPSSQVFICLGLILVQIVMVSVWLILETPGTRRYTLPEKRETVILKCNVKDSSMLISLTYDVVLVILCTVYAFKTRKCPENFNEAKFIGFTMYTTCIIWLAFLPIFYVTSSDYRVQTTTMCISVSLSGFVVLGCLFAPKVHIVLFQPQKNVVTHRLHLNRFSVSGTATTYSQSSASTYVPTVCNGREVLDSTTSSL
Sequence of Metabotropic glutamate receptor 2 (Rattus norvegicus) (P31421 19-872 limits assumed): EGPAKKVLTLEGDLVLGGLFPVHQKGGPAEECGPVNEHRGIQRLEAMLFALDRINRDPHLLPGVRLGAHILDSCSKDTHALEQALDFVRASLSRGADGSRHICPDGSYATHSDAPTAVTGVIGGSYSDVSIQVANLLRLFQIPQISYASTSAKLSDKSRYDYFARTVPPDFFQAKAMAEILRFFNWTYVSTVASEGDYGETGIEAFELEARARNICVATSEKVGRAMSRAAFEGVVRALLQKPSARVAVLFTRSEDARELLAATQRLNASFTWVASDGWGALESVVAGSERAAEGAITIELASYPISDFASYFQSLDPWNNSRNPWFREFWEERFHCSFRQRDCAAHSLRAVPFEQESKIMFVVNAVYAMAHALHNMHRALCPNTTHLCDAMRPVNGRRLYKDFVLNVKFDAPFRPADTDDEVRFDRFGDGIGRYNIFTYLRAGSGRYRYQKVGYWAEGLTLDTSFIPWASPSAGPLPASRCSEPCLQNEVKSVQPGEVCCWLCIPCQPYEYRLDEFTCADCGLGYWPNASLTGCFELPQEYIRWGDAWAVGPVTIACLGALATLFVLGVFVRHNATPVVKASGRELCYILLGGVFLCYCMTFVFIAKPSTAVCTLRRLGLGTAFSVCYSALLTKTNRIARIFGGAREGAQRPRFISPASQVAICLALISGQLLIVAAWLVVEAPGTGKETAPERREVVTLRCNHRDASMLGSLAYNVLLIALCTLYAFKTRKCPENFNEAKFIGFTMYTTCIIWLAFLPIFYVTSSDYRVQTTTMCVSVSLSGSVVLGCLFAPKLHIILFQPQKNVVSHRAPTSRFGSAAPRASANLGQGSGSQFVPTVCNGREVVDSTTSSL
Sequence of Metabotropic glutamate receptor 2 (P31421 whole entry): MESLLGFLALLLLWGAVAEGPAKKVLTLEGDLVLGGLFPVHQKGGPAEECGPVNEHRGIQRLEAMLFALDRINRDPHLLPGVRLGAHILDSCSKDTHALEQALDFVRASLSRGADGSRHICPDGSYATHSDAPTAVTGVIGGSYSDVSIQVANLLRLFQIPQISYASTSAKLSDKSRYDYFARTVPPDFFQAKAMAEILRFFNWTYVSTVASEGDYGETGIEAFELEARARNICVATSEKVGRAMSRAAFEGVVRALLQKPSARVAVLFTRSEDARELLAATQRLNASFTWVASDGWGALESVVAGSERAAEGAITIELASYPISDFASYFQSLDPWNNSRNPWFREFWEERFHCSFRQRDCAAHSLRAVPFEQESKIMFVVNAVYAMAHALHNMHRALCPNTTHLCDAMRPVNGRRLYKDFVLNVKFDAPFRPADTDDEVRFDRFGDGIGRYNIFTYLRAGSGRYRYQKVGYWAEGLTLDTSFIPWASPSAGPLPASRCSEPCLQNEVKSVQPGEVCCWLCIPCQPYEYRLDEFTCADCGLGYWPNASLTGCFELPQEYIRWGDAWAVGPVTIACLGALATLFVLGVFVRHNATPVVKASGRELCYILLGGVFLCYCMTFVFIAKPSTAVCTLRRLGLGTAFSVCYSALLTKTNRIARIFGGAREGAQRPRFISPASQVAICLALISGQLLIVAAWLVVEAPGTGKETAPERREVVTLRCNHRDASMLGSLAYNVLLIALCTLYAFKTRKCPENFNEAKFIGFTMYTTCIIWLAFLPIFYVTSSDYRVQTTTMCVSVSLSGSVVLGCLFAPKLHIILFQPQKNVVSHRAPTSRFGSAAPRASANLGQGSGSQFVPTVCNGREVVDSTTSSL
Sequence of Metabotropic glutamate receptor 3 (P31422 whole entry): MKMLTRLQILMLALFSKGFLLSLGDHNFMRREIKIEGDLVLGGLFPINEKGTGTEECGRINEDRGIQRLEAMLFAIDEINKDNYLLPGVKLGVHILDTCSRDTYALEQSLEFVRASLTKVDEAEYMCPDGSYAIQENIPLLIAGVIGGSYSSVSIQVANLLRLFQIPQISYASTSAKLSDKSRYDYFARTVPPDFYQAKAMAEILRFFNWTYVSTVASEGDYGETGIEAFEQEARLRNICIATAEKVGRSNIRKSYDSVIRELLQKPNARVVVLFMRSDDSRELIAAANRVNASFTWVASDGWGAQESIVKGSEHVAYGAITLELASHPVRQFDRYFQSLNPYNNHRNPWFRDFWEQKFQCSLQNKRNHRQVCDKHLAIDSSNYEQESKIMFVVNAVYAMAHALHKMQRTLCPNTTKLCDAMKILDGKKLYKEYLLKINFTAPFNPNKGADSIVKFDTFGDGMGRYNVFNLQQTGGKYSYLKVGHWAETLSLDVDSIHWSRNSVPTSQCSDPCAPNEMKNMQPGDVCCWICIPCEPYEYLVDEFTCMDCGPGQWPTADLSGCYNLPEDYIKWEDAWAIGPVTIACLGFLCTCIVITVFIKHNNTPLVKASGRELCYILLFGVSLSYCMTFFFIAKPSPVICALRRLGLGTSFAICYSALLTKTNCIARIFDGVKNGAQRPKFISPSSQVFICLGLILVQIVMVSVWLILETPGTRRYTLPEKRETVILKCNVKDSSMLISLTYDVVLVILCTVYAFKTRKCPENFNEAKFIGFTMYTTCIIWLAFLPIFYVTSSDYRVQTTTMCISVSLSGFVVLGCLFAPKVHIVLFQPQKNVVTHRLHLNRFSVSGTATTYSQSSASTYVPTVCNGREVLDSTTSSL
Sequence of Metabotropic glutamate receptor 3 (Mus musculus) (Q9QYS2 whole entry): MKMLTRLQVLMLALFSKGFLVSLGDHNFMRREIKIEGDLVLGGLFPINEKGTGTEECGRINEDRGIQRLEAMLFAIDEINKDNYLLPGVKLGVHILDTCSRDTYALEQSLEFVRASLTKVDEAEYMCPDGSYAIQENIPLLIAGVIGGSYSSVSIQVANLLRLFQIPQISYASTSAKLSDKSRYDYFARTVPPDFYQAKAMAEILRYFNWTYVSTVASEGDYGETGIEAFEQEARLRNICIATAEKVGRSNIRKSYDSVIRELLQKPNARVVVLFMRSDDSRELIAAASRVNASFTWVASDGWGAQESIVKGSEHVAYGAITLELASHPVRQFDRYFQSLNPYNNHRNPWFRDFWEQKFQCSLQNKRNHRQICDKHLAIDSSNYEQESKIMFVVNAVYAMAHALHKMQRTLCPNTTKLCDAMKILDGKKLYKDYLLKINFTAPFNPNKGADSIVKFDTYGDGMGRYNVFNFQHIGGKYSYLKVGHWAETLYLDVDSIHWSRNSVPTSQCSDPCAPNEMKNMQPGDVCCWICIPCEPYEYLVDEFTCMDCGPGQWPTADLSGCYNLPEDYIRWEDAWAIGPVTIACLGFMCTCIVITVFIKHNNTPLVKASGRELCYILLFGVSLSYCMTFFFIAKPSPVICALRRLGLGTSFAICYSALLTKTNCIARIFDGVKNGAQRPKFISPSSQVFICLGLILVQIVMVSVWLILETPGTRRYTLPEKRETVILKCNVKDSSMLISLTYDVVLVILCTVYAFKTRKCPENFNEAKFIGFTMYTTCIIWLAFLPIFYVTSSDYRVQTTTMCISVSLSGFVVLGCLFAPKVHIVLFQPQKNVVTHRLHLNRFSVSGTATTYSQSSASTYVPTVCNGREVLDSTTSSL

SMILES | Activity [1] | EC50 [2] | Activity [3] | EC50 [4] | Activity [1, 6] [%] | EC50 ([2]; read-out: EC50) [nM] | Activity [3, 6] [%] | EC50 ([4]; read-out: EC50) [nM] | Activity [5]
COc1cccc(OC[C@H](C)COc2ccc(C(=O)CC(C)(C)C)c(O)c2C)c1 | inactive | Not Active | inactive | Not Active |  |  |  |  | 
COc1ccc(OCCCCOc2ccc(C(=O)CC(C)(C)C)c(O)c2C)cc1 |  |  | inactive | Not Active | 103 | > 10000 |  |  | 
Cc1c(OCCCCOc2ccc(F)c(C(=O)N(C)C)c2)ccc(C(=O)CC(C)(C)C)c1O |  |  | inactive | Not Active | 60 | 3810 |  |  | 
Cc1ccc(C(=O)O)cc1OCCCCOc1ccc(C(=O)CC(C)(C)C)c(O)c1C |  |  |  |  | 120 | 512 | 144 | 892 | 
COc1ccc(C(=O)O)cc1O[C@@H](C)COc1ccc(C(=O)CC(C)(C)C)c(O)c1C |  |  |  |  | 117 | 137 | 91 | 2210 | 
COC(=O)c1cc(OCCCCOc2ccc(C(=O)CC(C)(C)C)c(O)c2C)ccc1F |  |  | inactive | Not Active |  |  |  |  | 
Cc1ccc(OCCCCOc2ccc(C(=O)CC(C)(C)C)c(O)c2C)cc1C(=O)O |  |  |  |  | 90 | 210 | 88 | 309 | 
Cc1c(OC[C@@H](C)COc2ccc(C(=O)O)c(Cl)c2)ccc(C(=O)CC(C)(C)C)c1O |  |  |  |  | 107 | 50 | 93 | 860 | 
Cc1c(OCCCCOc2ccc(C(=O)O)cc2F)ccc(C(=O)CC(C)(C)C)c1O |  |  |  |  | 114 | 75 | 98 | 1230 | 
COc1ccccc1OCC(C)COc1ccc(C(=O)CC(C)(C)C)c(O)c1C (single isomer, unassigned) | inactive | Not Active | inactive | Not Active |  |  |  |  | 
Cc1c(OC[C@H](C)COc2ccc(F)c(C(=O)O)c2)ccc(C(=O)CC(C)(C)C)c1O |  |  |  |  | 114 | 294 | 87 | 651 | 
Cc1c(OC[C@@H](C)COc2ccc(Cl)c(C(=O)O)c2)ccc(C(=O)CC(C)(C)C)c1O |  |  |  |  | 120 | 377 | 73 | 2200 | 
Cc1c(OCC(C)COc2ccc(C(=O)O)cc2F)ccc(C(=O)CC(C)(C)C)c1O (single isomer, unassigned) |  |  |  |  | 98 | 222 | 87 | 1300 | 
COc1cc(OC[C@H](C)COc2ccc(C(=O)CC(C)(C)C)c(O)c2C)ccc1C(=O)O |  |  |  |  | 94 | 194 | 88 | 1460 | 
COc1cc(OCCCCOc2ccc(C(=O)CC(C)(C)C)c(O)c2C)cc(C(=O)O)c1 |  |  |  |  | 116 | 102 | 102 | 703 | 
Cc1cc(C(=O)O)ccc1OC[C@H](C)COc1ccc(C(=O)CC(C)(C)C)c(O)c1C |  |  |  |  | 113 | 446 | 97 | 1520 | 
Cc1c(OC[C@@H](C)Oc2ccc(F)c(C(=O)O)c2)ccc(C(=O)CC(C)(C)C)c1O |  |  |  |  | 125 | 112 | 117 | 1210 | 
Cc1c(OC[C@@H](C)COc2ccc3c(c2)C(=O)NC3)ccc(C(=O)CC(C)(C)C)c1O |  |  | inactive | Not Active | 50 | > 10000 |  |  | 
Cc1c(OC[C@@H](C)COc2ccc(C(=O)O)c(F)c2)ccc(C(=O)CC(C)(C)C)c1O |  |  |  |  | 94 | 261 | 86 | 1090 | 
Cc1c(OC[C@@H](C)COc2ccc(F)c(C(=O)O)c2)ccc(C(=O)CC(C)(C)C)c1O |  |  |  |  | 99 | 112 | 92 | 1180 | 

SMILES | Activity [1] | EC50 [2] | Activity [3] | EC50 [4] | Activity [1, 6] [%] | EC50 ([2]; read-out: EC50) [nM] | Activity [3, 6] [%] | EC50 ([4]; read-out: EC50) [nM] | Activity [5]
COc1cc(C(=O)O)ccc1OC[C@H](C)COc1ccc(C(=O)CC(C)(C)C)c(O)c1C |  |  |  |  | 110 | 28 | 93 | 512 | 
Cc1ccc(OC[C@H](C)COc2ccc(C(=O)CC(C)(C)C)c(O)c2C)cc1C(=O)O |  |  |  |  |  |  | 48 | > 10000 | 
Cc1c(OCCCCOc2ccc(Cl)c(C(=O)O)c2)ccc(C(=O)CC(C)(C)C)c1O |  |  |  |  | 112 | 87 | 87 | 130 | 
CNC(=O)c1cc(OCCCCOc2ccc(C(=O)CC(C)(C)C)c(O)c2C)ccc1F |  |  |  |  | 110 | 164 | 103 | 476 | Active
Cc1c(OCC(C)COc2cc(C(=O)O)ccc2F)ccc(C(=O)CC(C)(C)C)c1O (single isomer, unassigned) |  |  |  |  |  |  | 74 | 3950 | 
COc1ccc(C(=O)O)cc1OC[C@H](C)Oc1ccc(C(=O)CC(C)(C)C)c(O)c1C |  |  |  |  |  |  | 71 | 3820 | 
COc1ccc(C(=O)O)cc1OC[C@@H](C)COc1ccc(C(=O)CC(C)(C)C)c(O)c1C |  |  |  |  |  |  | 120 | 1040 | 
Cc1c(OC[C@H](C)Oc2ccc(F)c(C(=O)O)c2)ccc(C(=O)CC(C)(C)C)c1O |  |  |  |  | 122 | 142 | 105 | 1100 | 
Cc1cc(OC[C@H](C)COc2ccc(C(=O)CC(C)(C)C)c(O)c2C)ccc1C(=O)O |  |  |  |  | 91 | 305 | 80 | 1350 | 
COc1ccc(OCCCCOc2ccc(C(=O)CC(C)(C)C)c(O)c2C)cc1C(=O)O |  |  |  |  | 116 | 13 | 99 | 490 | 
Cc1c(O[C@H](C)COc2ccc(F)c(C(=O)O)c2)ccc(C(=O)CC(C)(C)C)c1O |  |  |  |  | 118 | 83 | 79 | 2410 | 
COc1ccc(C(=O)N(C)C)cc1OCC(C)COc1ccc(C(=O)CC(C)(C)C)c(O)c1C (single isomer, unassigned) |  |  | inactive | Not Active | 82 | 5060 |  |  | 
Cc1c(OCCCCOc2ccc(F)c(C(N)=O)c2)ccc(C(=O)CC(C)(C)C)c1O |  |  | inactive | Not Active | 107 | > 10000 |  |  | 
Cc1c(OCCCCOc2cncc(C(=O)O)c2)ccc(C(=O)CC(C)(C)C)c1O |  |  |  |  | 120 | 490 | 91 | 180 | 
COc1ccc(C(=O)O)cc1OC[C@@H](C)Oc1ccc(C(=O)CC(C)(C)C)c(O)c1C |  |  |  |  | 114 | 78 | 97 | 806 | 
Cc1c(OCC(C)COc2ccc(C(=O)O)cc2Cl)ccc(C(=O)CC(C)(C)C)c1O (single isomer, unassigned) |  |  |  |  | 97 | 477 | 98 | 1650 | 
Cc1c(OCCCCOc2ccc(C(=O)O)c(F)c2)ccc(C(=O)CC(C)(C)C)c1O |  |  |  |  | 108 | 80 | 107 | 1110 | 
COc1ccc(C(=O)O)cc1O[C@H](C)COc1ccc(C(=O)CC(C)(C)C)c(O)c1C |  |  |  |  |  |  | 111 | 1850 | 
Cc1c(O[C@@H](C)COc2ccc(F)c(C(=O)O)c2)ccc(C(=O)CC(C)(C)C)c1O |  |  |  |  | 114 | 257 | 89 | 1120 | 
Cc1ncc(OCCCCOc2ccc(C(=O)CC(C)(C)C)c(O)c2C)cc1C(=O)O |  |  |  |  | 116 | 28 | 103 | 79 | 
